Assay results reported in patent US6432939B1, “17a-hydroxy-4-androstene-3-one and derivatives thereof” (priority 1999, dated 2002).

Columns and labels:
Sertoli cells = assay: inhibin-B secretion by Sertoli cells (inhibin-B dimer assay, Serotec); format: cell-based, Wistar rats
Experimental: The in-vitro stimulating effect on inhibin-B generation was measured using inhibin-B dimer assays by Serotec, Oxford, UK. […] The difference between the released inhibin-B quantity with and without the test substance expresses the efficacy of the respective test substance.
The substances were tested for their stimulating effect on inhibin-B secretion in an in-vitro model using Sertoli cells originating from Wistar rats and cultivated for up to 4 days.
Wistar rats that were 18 days old were killed using CO2; their testicles were collected and mechanically chopped up using a surgical knife. The resulting cell pulp was enzymatically disintegrated with collagenase II, hyaluronidase, and DNase using the following method: The cell pulp was digested for 15 minutes at 37° C. in 20 ml of Dulbecco's Modified Essential Medium (DMEM) containing 20 mg of collagenase II; subsequently, it was sedimented for 7 minutes at room temperature. The supernatant was discarded. The remaining pellet was resuspended in DMEM, then sedimented again for 7 minutes. The next steps were a second decomposition for 30 minutes at 37° C. in 20 ml of DMEM containing 40 mg of collagenase II, 40 mg of hyaluronidase, and 0.1 mg of DNase, and a centrifugation step at 500 rpm. After washing in DMEM without additives and another centrifugation step, the pellet was a third time enzymatically disintegrated for 30 minutes at 37° C. in 20 ml of DMEM containing 40 mg of collagenase II, 40 mg of hyaluronidase and 0.1 mg of DNase, then centrifuged at 1,000 rpm. The pellet was then resuspended, washed once in DMEM without additives, and finally sublimated with 100 U/ml of penicillin, 100 μg/ml of streptomycin, 5 μg/ml of human transferrin, 2 μg/ml of insulin, 50 ng/ml of vitamin A (all from Sigma Co.), 200 ng/ml of vitamin E (Merck Co.), and 3 mg/ml of cytosine arabinoside (Sigma Co.) (DMEM-Z) and sowed in 24-well microtiter plates. After 48 hours, the cultivated cells were given hypotonic treatment using 20 mM of Tris-HCl (pH 7.4) to remove residual gametes, then the medium was changed into DMEM-Z.
1 ml of biological sample containing 10^6 Sertoli cells in 990 ml of DMEM-Z and test substances at a concentration range from 0.1 nM to 1 μM, each dissolved in 10 μl of absolute ethanol (1% w/v of the total batch) was incubated for 48 hours at 34° C. and 5% CO2. The culture supernatant was then decanted from the cells, frozen at −20° C. and kept until the inhibin-B level was determined.
0.1 ml of culture supernatant was mixed with 0.05 ml of SDS of the inhibin-B assay (Serotec, Oxford, UK) in 1.8 ml Eppendorf reaction vessels and heated for 3 minutes to 100° C. After the batch had cooled down, 0.1 ml of assay diluent and 0.05 ml of a 6% H2O2 solution were added, intermixed, then incubated for 30 minutes at room temperature.
80 ml of the above reaction mixture and 80 ml of the 7 inhibin-B standards for creating a calibration curve contained in the assay were pipetted into the wells of the microtiter plate contained in the assay and allowed to incubate at room temperature overnight. Finally the wells were washed 3 times with an inhibin washing buffer.
The content of the alkaline phosphatase-conjugated antibody against human inhibin-B contained in the assay was taken up in 6 ml of assay diluent, and 0.05 ml of this solution were pipetted into the wells and incubated for 3 hours at room temperature. […]

FSH levels in the plasma = conditions: depending on its dose; Bicikova 1993; cited from earlier work
[1] = tested on: epididymal and prostatic 5α-reductase; conditions: Monsalve 1977; Starka 1989; cited from earlier work

Row | Structure (SMILES) | inhibin-B levels expressed from the culture supernatant as compared to the control tests (Sertoli cells; Sertoli cell culture, incubation time of 44 and 52 hours, FIG. 2 (EpiT 1 uM)) | increase of inhibin-B levels: concentration range of particularly striking effect (Sertoli cells; epitestosterone concentrations in the range from 10 nM to 1 pM) | effect on FSH levels in the plasma (FSH levels in the plasma) | inhibition of epididymal and prostatic 5α-reductase [1] | inhibin-B secretion after adding steroids from natural sources (Sertoli cells; Sertoli cell culture)
1 | C[C@]12CC[C@H]3[C@@H](CCC4=CC(=O)CC[C@@]43C)[C@@H]1CC[C@H]2O [17α-hydroxy-4-androstene-3-one] | significantly increased | particularly striking | either an inhibiting or an increasing effect | inhibits | 
2 | C[C@]12CCC(=O)C[C@@H]1CC[C@@H]1[C@@H]2CC[C@]2(C)[C@@H](O)CC[C@@H]12 [dihydrotestosterone] |  |  |  |  | not influenced
3 | CC(=O)[C@H]1CC[C@H]2[C@@H]3CCC4=CC(=O)CC[C@]4(C)[C@H]3CC[C@]12C [progesterone] |  |  |  |  | not influenced
4 | C[C@]12CC[C@H]3[C@@H](CCC4=CC(=O)CC[C@@]43C)[C@@H]1CC[C@@H]2O [testosterone] |  |  |  |  | not influenced
